Source: patent US11351264B2, “PAR2 mimetic peptides and uses thereof” (ARIZONA BOARD OF REGENTS ON BEHALF OF THE UNIVERSITY OF …, priority 2016, dated 2022)
Primed or numbered codes have the meaning given here. *: point of attachment. 2at = 2-aminothiazol-4-yl N-terminal cap, Nc1nc(*)cs1; Hdc = hexadecyl (lipid tether group); PEG3′ = not defined here

What was measured:
Type in all cases: cell-based
PAR2 [1] = target: T1, PAR2 (Homo sapiens, UniProt P55085); assay: RTCA screen (xCELLigence in vitro physiological signalling assay)
T1 sequence (P55085 26-397): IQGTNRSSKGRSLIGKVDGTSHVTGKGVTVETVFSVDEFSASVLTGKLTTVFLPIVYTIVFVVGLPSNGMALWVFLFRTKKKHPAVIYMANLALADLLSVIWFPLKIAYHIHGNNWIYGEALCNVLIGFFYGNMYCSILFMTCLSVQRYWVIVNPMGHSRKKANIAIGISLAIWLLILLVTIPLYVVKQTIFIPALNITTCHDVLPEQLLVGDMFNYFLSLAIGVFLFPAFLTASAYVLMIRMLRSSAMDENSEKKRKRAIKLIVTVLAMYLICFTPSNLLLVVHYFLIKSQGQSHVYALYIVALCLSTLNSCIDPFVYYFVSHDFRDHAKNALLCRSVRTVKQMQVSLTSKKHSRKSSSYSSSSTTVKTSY
From the text: FIGS. 5A-B show in vitro physiological PAR2 agonist screening using xCELLigence. […] This compound was a biased-signalling antagonist in that it had no effect on mitogen activated protein kinase (MAPK) signalling, the other major signalling pathway activated via PAR2. […] Thus, experiments screened a series of potential PAR2 ligands with a heterocycle serine substitute followed by four amino acids (XXGR) and the PEG3-Hdc lipid tether. […], C595 and […] are novel pharmacological tools that can be used to evaluate the physiological consequences of PAR2 full and biased ligand signalling.

PAR2 [2] = target: T1, PAR2; assay: PAR2 Ca2+ signalling in cultured human bronchial epithelial cells (16HBE14o-); set-up: endogenous in cells; host or cells: 16HBE14o- human bronchial epithelial cells; settings: for Block of PAR2 Ca2+ signalling elicited via protease activation: Alternaria alternata filtrates; for Block of PAR2 Ca2+ signalling elicited via protease activation / Block of PAR2 Ca2+ signalling elicited via peptidomimetics: 16HBE14o- cells, C608 at nanomolar concentrations; for Block of PAR2 Ca2+ signalling elicited via peptidomimetics: activation by 2-at-LIGRL-NH2
From the text: (§1) This compound was a biased-signalling antagonist in that it had no effect on mitogen activated protein kinase (MAPK) signalling, the other major signalling pathway activated via PAR2. […] C595 is closely related to the previously described potent and specific PAR2 agonist, 2-at-LIGR (SEQ ID NO: 1)-PEG3-Hdc. Thus, experiments screened a series of potential PAR2 ligands with a heterocycle serine substitute followed by four amino acids (XXGR) and the PEG3-Hdc lipid tether. […] C562, C595 and C608 are novel pharmacological tools that can be used to evaluate the physiological consequences of PAR2 full and biased ligand signalling.

PAR2 [3] = target: T1, PAR2; assay: Mitogen activated protein kinase (MAPK) signalling activated via PAR2; settings: for Effect on MAPK signalling (as antagonist): C608 at nanomolar concentrations
From the text: as §1

Substance | Compound Summary as Determined by RTCA Screen (PAR2 [1]) | further results
2at-penicillamine-IGR-PEG3-Hdc [Compound 22] | No Activity at PAR2 Detected | 
2at-VIGR-PEG3-Hdc [Compound 17] | PAR2 Agonist | 
2at-SKGRS-PEG3-Hdc (2at-SKGRS-{PEG3′-Hdc}) [Compound 5] | PAR2 Antagonist | Block of PAR2 Ca2+ signalling elicited via protease activation (PAR2 [2]): blocks PAR2 Ca^2+ signalling; Block of PAR2 Ca2+ signalling elicited via peptidomimetics (PAR2 [2]): blocks PAR2 Ca^2+ signalling; Effect on MAPK signalling (as antagonist) (PAR2 [3]): no effect
2at-(dl)IGR-PEG3-Hdc [Compound 25] | No Activity at PAR2 Detected | 
2at-hydroxyproline-IGR-PEG3-Hdc [Compound 20] | No Activity at PAR2 Detected | 
2at-DIGR-PEG3-Hdc [Compound 15] | No Activity at PAR2 Detected | 
2at-homoserine-IGR-PEG3-Hdc [Compound 21] | PAR2 Agonist | 
2at-(dT)IGR-PEG3-Hdc [Compound 26] | No Activity at PAR2 Detected | 
2at-TKGR-PEG3-Hdc [Compound 10] | No Activity at PAR2 Detected | 
2at-SKGR-PEG3-Hdc (2at-SKGR-{PEG3′-Hdc}) [Compound 6] |  | Antagonistic activity against peptidomimetic activation (PAR2 [1]; xCELLigence in vitro physiological signalling assay): maintained antagonistic activity
2at-SHGR-PEG3-Hdc [Compound 8] | No Activity at PAR2 Detected | 
2at-LKGR-PEG3-Hdc [Compound 11] | Full PAR2 Agonist | 
2at-TIGR-PEG3-Hdc (2at-TIGR-{PEG3′-Hdc}) [Compound 14] | PAR2 Agonist and Antagonist | Ca2+ signalling profile (agonist/antagonist) (PAR2 [2]): Partial Ca^2+ signalling agonist and potent antagonist (low concentrations); Block of PAR2 Ca2+ signalling elicited via protease activation (PAR2 [2]): blocked PAR2-dependent Ca^2+ signalling; Block of PAR2 Ca2+ signalling elicited via peptidomimetics (PAR2 [2]): blocked PAR2-dependent Ca^2+ signalling; MAPK pathway profile (agonist/antagonist) (PAR2 [3]): Full MAPK agonist; Effect on MAPK signalling (as antagonist) (PAR2 [3]): without effects on MAPK signalling; RTCA signalling profile (agonist/antagonist) (PAR2 [1]; listed as C608): Partial RTCA agonist and potent anatagonist (low concentrations)
2at-4thiazolamine-IGR-PEG3-Hdc [Compound 23] | No Activity at PAR2 Detected | 
2at-SRGR-PEG3-Hdc [Compound 7] | No Activity at PAR2 Detected | 
2at-(dL)IGR-PEG3-Hdc [Compound 24] | No Activity at PAR2 Detected | 
2at-HIGR-PEG3-Hdc [Compound 16] | PAR2 Agonist | 
2at-SIGR-PEG3-Hdc [Compound 13] | No Activity at PAR2 Detected | 
2at-LIGR-PEG3-Hdc [Compound 12] | Full PAR2 Agonist | 
